Columns and labels:
[1] = DRUGMATRIX: Sodium/nucleoside co-transporter radioligand binding (ligand: nitrobenzylthioinosine); assay type: cell membranes, Cavia porcellus, Dunkin-Hartley, Cerebral cortex, Membrane; conditions: Not Active = under 50% inhibition at 10 µM
[2] = DRUGMATRIX: Calcium Channel Type L, Dihydropyridine radioligand binding (ligand: [3H] Nitrendipine); assay type: cell membranes, Rattus norvegicus, Wistar, Cerebral cortex, Membrane; conditions: Not Active = under 50% inhibition at 10 µM
[3] = target: T1, Polyunsaturated fatty acid lipoxygenase ALOX15 (Oryctolagus cuniculus, UniProt P12530); assay: biochemical; assay type: tissue-based, Reticulocytes;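 also: inhibition of 15-lipoxygenase enzyme activity measured with linoleic acid as the substrate; in other assays of this panel Not Active means under 50% inhibition at 10 µM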
T1 sequence (P12530 whole entry): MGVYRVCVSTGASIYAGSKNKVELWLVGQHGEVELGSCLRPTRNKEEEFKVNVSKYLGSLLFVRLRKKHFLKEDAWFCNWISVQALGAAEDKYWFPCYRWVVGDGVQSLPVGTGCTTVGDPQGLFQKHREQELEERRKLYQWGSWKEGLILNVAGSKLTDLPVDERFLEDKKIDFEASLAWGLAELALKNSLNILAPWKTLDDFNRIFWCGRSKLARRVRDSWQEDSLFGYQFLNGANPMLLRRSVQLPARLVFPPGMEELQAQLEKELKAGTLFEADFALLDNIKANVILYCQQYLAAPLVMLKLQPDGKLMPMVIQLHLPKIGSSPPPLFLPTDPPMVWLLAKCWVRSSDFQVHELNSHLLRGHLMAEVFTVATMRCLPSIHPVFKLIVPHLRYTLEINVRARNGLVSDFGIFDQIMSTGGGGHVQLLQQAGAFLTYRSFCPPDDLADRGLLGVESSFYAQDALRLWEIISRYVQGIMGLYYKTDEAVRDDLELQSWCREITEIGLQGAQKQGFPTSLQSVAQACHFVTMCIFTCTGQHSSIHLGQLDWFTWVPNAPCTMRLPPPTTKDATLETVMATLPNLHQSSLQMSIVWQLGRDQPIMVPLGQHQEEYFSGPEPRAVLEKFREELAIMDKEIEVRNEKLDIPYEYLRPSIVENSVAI

[4] = target: T2, Neuropeptide Y receptor type 1 (Homo sapiens, UniProt P25929); assay type: cell membranes, Membrane; conditions: sk-n-mc; also: in other assays of this panel Not Active means under 50% inhibition at 10 µM
T2 sequence (P25929 whole entry): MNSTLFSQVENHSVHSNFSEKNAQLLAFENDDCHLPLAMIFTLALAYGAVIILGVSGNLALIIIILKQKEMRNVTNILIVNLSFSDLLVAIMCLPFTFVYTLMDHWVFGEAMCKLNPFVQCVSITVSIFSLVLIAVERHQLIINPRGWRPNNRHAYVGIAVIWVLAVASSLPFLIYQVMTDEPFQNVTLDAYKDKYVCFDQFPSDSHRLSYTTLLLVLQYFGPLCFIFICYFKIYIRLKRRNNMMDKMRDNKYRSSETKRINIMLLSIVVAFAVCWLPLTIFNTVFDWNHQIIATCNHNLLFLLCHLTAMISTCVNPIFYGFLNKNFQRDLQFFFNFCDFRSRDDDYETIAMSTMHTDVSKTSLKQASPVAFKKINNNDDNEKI

[5] = DRUGMATRIX: Phorbol Ester radioligand binding (ligand: [3H] PDBu); assay type: cell membranes, Mus musculus, ICR, Brain, Membrane; conditions: Not Active = under 50% inhibition at 10 µM
[6] = DRUGMATRIX: Phosphodiesterase PDE3 enzyme inhibition (substrate: [3H]cAMP + cAMP); assay type: tissue-based, Homo sapiens; conditions: platelet; Not Active = under 50% inhibition at 10 µM
[7] = DRUGMATRIX: Phosphodiesterase PDE4 enzyme inhibition (substrate: [3H]cAMP + cAMP); conditions: u-937, Not Active = under 50% inhibition at 10 µM

Row | Structure (SMILES) | IC50 [1] | Ki [1] | IC50 [2] | Ki [2] | IC50 ([3]; reticulocytes) | IC50 [4] | IC50 [5] | Ki [5] | IC50 [6] | Ki [6] | IC50 [7] | Ki [7] | IC50 ([1]; read-out: IC50) [nM] | Ki ([1]; read-out: Ki) [nM] | IC50 ([3]; read-out: IC50) [nM] | IC50 ([7]; read-out: IC50) [nM]
1 | CC(C)(C)NC(=O)[C@@H]1C[C@@H]2CCCC[C@@H]2CN1C[C@@H](O)[C@H](Cc1ccccc1)NC(=O)[C@H](CC(N)=O)NC(=O)c1ccc2ccccc2n1 | Not Active | Not Active | Not Active | Not Active | Not Active | Not Active | Not Active | Not Active | Not Active | Not Active | Not Active | Not Active |  |  |  | 
2 | CC(=O)[C@@]1(O)CC[C@H]2[C@@H]3C[C@H](C)C4=CC(=O)CC[C@]4(C)[C@H]3CC[C@@]21C | Not Active | Not Active | Not Active | Not Active | Not Active | Not Active | Not Active | Not Active | Not Active | Not Active | Not Active | Not Active |  |  |  | 
3 | N[C@@H](Cc1ccc(N(CCCl)CCCl)cc1)C(=O)O | Not Active | Not Active | Not Active | Not Active | Not Active | Not Active | Not Active | Not Active | Not Active | Not Active | Not Active | Not Active |  |  |  | 
4 | CCCCc1oc2ccccc2c1C(=O)c1cc(I)c(OCCN(CC)CC)c(I)c1 [AMIODARONE] |  |  |  |  | Not Active | Not Active |  |  |  |  |  |  |  |  |  | 
5 | OCCN(CCO)c1nc(N2CCCCC2)c2nc(N(CCO)CCO)nc(N3CCCCC3)c2n1 [DIPYRIDAMOLE] |  |  | Not Active | Not Active |  | Not Active | Not Active | Not Active | Not Active | Not Active |  |  | 83 | 29 | 6960 | 1580
6 | Cc1oncc1C(=O)Nc1ccc(C(F)(F)F)cc1 [LEFLUNOMIDE] |  |  | Not Active | Not Active | Not Active | Not Active | Not Active | Not Active | Not Active | Not Active | Not Active | Not Active | 15100 | 5160 |  | 
7 | c1ccc([C@H]2CN3CCSC3=N2)cc1 [LEVAMISOLE] | Not Active | Not Active | Not Active | Not Active | Not Active | Not Active | Not Active | Not Active | Not Active | Not Active | Not Active | Not Active |  |  |  | 
8 | N[C@@H](Cc1ccc(O)c(O)c1)C(=O)O [LEVODOPA] | Not Active | Not Active | Not Active | Not Active |  | Not Active | Not Active | Not Active | Not Active | Not Active | Not Active | Not Active |  |  | 2260 | 
9 | N[C@@H](Cc1cc(I)c(Oc2ccc(O)c(I)c2)c(I)c1)C(=O)O [LIOTHYRONINE] |  |  |  |  | Not Active | Not Active |  |  |  |  |  |  |  |  |  | 
10 | O=NN(CCCl)C(=O)NC1CCCCC1 [LOMUSTINE] | Not Active | Not Active | Not Active | Not Active | Not Active | Not Active | Not Active | Not Active | Not Active | Not Active | Not Active | Not Active |  |  |  | 
11 | CCOC(=O)N1CCC(=C2c3ccc(Cl)cc3CCc3cccnc32)CC1 [LORATADINE] | Not Active | Not Active | Not Active | Not Active | Not Active | Not Active | Not Active | Not Active | Not Active | Not Active | Not Active | Not Active |  |  |  | 
12 | Cn1ccnc1S [METHIMAZOLE] | Not Active | Not Active | Not Active | Not Active | Not Active | Not Active | Not Active | Not Active | Not Active | Not Active | Not Active | Not Active |  |  |  | 
